According to US12358935B2, “Targeting redox-active pyridinium cations to mitochondria to inhibit proliferation of drug-resistant cancer cells” (The Medical College of Wisconsin, Inc., priority 2018, dated 2025):
Entries after “also recorded” stand apart in the source; their conditions may differ. Like-named read-outs stand apart in the source and are kept apart here.

Tests used:
[1] = test system: MiaPaCa2 cells; experiment: Inhibition of pancreatic cancer cell growth; assay type: cell-based, human
Method: (§1) FIG. 12. (A) Antiproliferative potency of Mito-NP against different pancreatic cancer cells. (B) Comparison of the antiproliferative effects of Mito-NP, with its untargeted analogs (10 μM each).
FIG. 19. Antiproliferative (A) and cytotoxic (B) potency of Mito-NP vs. Mito-NPH. MiaPaCa2 cells were incubated with the compounds for 5 days and cells counted (A) or for 24 h, followed by labeling with Sytox Green dead cell fluorescent stain (B).
(§2) 1. Antiproliferative and cytotoxic effects in pancreatic cancer cells. […] To determine the cytotoxic potency of Mito-NP, we used Sytox Green fluorescent marker, which accumulates in dead cells and increases its fluorescence yield upon binding DNA.
We treated pancreatic cancer cells with Mito-NP or Mito-NPH and the intracellular levels of both oxidized, redox-cycling capable Mito-NP, and its cell membrane-permeable reduced precursor, Mito-NPH, were measured using LC-MS/MS. […] The increased intracellular level of Mito-NP upon treatment with Mito-NPH also translated into 2-fold stronger stimulation of intracellular O2.^− production, as measured by monitoring O2.^−-specific product of hydroethidine oxidation, 2-OH-E^+ (FIG. 18C). […] Tumor size was measured using calipers and by weighing the tumor tissues at the completion of the study. […] The tumor tissues were analyzed for the level of Mito-NP and Mito-NPH 24 h after the last injection of Mito-NPH.

[2] = test system: MiaPaCa2 cells; assay type: cell-based
Method: (§3) FIG. 13. […] Cells were stained with Sytox Green dye after 48-h treatment with the compounds to label dead cells.
FIG. 19. […] MiaPaCa2 cells were incubated with the compounds for 5 days and cells counted (A) or for 24 h, followed by labeling with Sytox Green dead cell fluorescent stain (B).
as §2
We treated pancreatic cancer cells with Mito-NP or Mito-NPH and the intracellular levels of both oxidized, redox-cycling capable Mito-NP, and its cell membrane-permeable reduced precursor, Mito-NPH, were measured using LC-MS/MS. […] The dynamics of inhibition of mitochondrial respiration by Mito-NPH and Mito-NP was used to follow the compounds' uptake rates. […] Next, we tested the effects of Mito-NPH on MiaPaCa2 cell proliferation and survival. […] 5. Syngraft mouse model. We have established a preliminary syngraft model using mouse FC1242 PDAC cell line. […] Tumor size was measured using calipers and by weighing the tumor tissues at the completion of the study. […] The tumor tissues were analyzed for the level of Mito-NP and Mito-NPH 24 h after the last injection of Mito-NPH.

[3] = test system: MiaPaCa2 cells; experiment: Cellular oxidants, HE probe with HPLC profiling; assay type: cell-based, human; conditions: 10 μM
Method: FIG. 14. Stimulation of cellular oxidants by Mito-NP in pancreatic cancer cells. Profiles of HE oxidation products in MiaPaCa2 cells treated with Mito-NP (10 μM, 4 h).
(§4) FIG. 18. (A) Intracellular level of Mito-NP and Mito-NPH. (B) Dynamics of inhibition of mitochondrial respiration by Mito-NP and Mito-NPH. (C) Intracellular generation. 10 μM Mito-NP or Mito-NPH was used.
2.1. Generation of O2.^− and other oxidants. […] We have confirmed the mitochondrial localization of O2.^− production using Mito-SOX (Mito-HE-C6) probe with HPLC-based detection of, 2-OH-Mito-E^+, the O2.^−-specific oxidation product of MitoSOX (not shown).
(§5) We treated pancreatic cancer cells with Mito-NP or Mito-NPH and the intracellular levels of both oxidized, redox-cycling capable Mito-NP, and its cell membrane-permeable reduced precursor, Mito-NPH, were measured using LC-MS/MS. […] The dynamics of inhibition of mitochondrial respiration by Mito-NPH and Mito-NP was used to follow the compounds' uptake rates. […] The increased intracellular level of Mito-NP upon treatment with Mito-NPH also translated into 2-fold stronger stimulation of intracellular O2.^− production, as measured by monitoring O2.^−-specific product of hydroethidine oxidation, 2-OH-E^+ (FIG. 18C). […] Next, we tested the effects of Mito-NPH on MiaPaCa2 cell proliferation and survival. […] 5. Syngraft mouse model. We have established a preliminary syngraft model using mouse FC1242 PDAC cell line. After the tumor has been established and detectable by palpation (seven days after injection of tumor cells), Mito-NPH (0.2 mg per injection) was administered three times per week. Tumor size was measured using calipers and by weighing the tumor tissues at the completion of the study. […] The tumor tissues were analyzed for the level of Mito-NP and Mito-NPH 24 h after the last injection of Mito-NPH.

[4] = test system: MiaPaCa2 cells; experiment: Bioenergetic function, Seahorse XF96 flux analyzer; assay type: cell-based, human
Method: FIG. 16. Inhibition of mitochondrial respiration by Mito-NP in MiaPaCa2 cells. (A) Mito-NP injected during the measurements. (B) Cells pretreated with Mito-NP for 24 h. (C) Effect of Mito-NP concentration on ATP-linked respiration rate after 1 h and 24 h incubation. (D) Effect of Mito-NP concentration on glycolytic and mitochondrial ATP production rates after 24-h incubation.
as §4
Immediately (1 h) after injection, a high concentration of Mito-NP (100 μM) was needed to block ATP-linked respiration (FIG. 16A,C). […] One of the hallmarks of cancer cells is their flexibility in using different energetic substrates to sustain growth in the presence of metabolism-targeted drugs.
as §5

[5] = test system: FC1242 PDAC tumor; experiment: Syngraft mouse model, tumor growth; assay type: in vivo; conditions: 0.2 mg per injection, three times per week, 9 days of treatment, FC1242 syngraft in mice
Description: (§6) FIG. 20. In vivo effects of Mito-NPH on the FC1242 PDAC tumor growth in mice. (A) Tumor growth curves; (B) tumor wet weight after 9 days of treatment; and (C) LC-MS/MS traces of Mito-NP, Mito-NPH, and their metabolites: hydroxylamine (Mito-HAP) and amine (Mito-AP) derivatives extracted from tumor. n=5 per group, *p<0.05
as §5, with “After the tumor has been established and detectable by palpation (seven days after injection of tumor cells), Mito-NPH (0.2 mg per injection) was administered three times per week.” left out

[6] = Tumor tissue compound levels, LC-MS/MS; assay type: in vivo, mouse; conditions: 24 h after the last injection of Mito-NPH
Description: as §6
as §5, with “After the tumor has been established and detectable by palpation (seven days after injection of tumor cells), Mito-NPH (0.2 mg per injection) was administered three times per week.” left out

[7] = test system: LS513 cells; experiment: Cell proliferation, IncuCyte cell confluence; assay type: cell-based, human; conditions: for IC50: estimated from concentration dependence
Method: FIG. 8. Effect of Mito-Py compounds (10 μM) on the proliferation of LS513 cells. (A) Effect of the substituent on the pyridinium ring. (B) Effect of the alkyl linker length in Mito-NP.
FIG. 9. Effect of concentration of Mito-NP-C8 and Mito-NP-C10 on the LS513 cell confluence. Dashed lines correspond to 50% cell confluence.
Antiproliferative effects of mitochondria-targeted pyridinium cations. To test if the mitochondrial redox stress induced by Mito-Py compounds would translate into inhibition of cancer cell proliferation, we compared the effects of Mito-Py of different redox potential and different alkyl linker length on proliferation of LS513 cells. We used the IncuCyte™ Live-Cell Imaging Analyzer that provides real-time cell confluence data (FIG. 8).

[8] = test system: Panc1 cells; experiment: Inhibition of pancreatic cancer cell growth; assay type: cell-based, human
Method: as §1, §2

[9] = test system: FC1242 cells; experiment: Inhibition of pancreatic cancer cell growth; assay type: cell-based, mouse
Method: as §1, §2

[10] = test system: HPNE non-tumorigenic pancreatic duct cell line; experiment: Cytotoxicity, Sytox Green dead cell stain; assay type: cell-based, human; conditions: HPNE non-cancer cells, 48-h treatment
Description: as §3, §2

[11] = test system: mitochondrial Prx3; experiment: Redox status of peroxiredoxin 3; assay type: cell-based, human; conditions: MiaPaCa2 cells
Description: (§7) FIG. 15. Effect of Mito-NP on the redox status of cytosolic (Prx1) and mitochondrial (Prx3) peroxiredoxins in MiaPaCa2 cells. *p<0.05, ***p<0.001.
(§8) 2.2. Prx oxidation. Increased production of O2.^− results in elevated H2O2 flux. We tested the effect of Mito-NP on the redox status of cytosolic (Prx1) and mitochondrial (Prx3) peroxiredoxins (FIG. 15A).

[12] = test system: cytosolic Prx1; experiment: Redox status of peroxiredoxin 1; assay type: cell-based, human; conditions: MiaPaCa2 cells
Description: as §7, §8

[13] = test system: LS513 colon cancer cells; experiment: Superoxide production, hydroethidine (HE) assay with HPLC of 2-OH-E+; assay type: cell-based, human; conditions: 50 μM, 1 h pre-incubation then 1 h HE probe
Method: FIGS. 5A-5B. Stimulation of intracellular superoxide of Mito-Py. LS513 colon cancer cells were pre-incubated for 1 h with 50 μM Mito-Py followed by 1-h incubation with the HE probe. 2-OH-E^+ is a specific product of the reaction of the probe with superoxide. (A) Effect of the substituent on the pyridinium ring. (B) Effect of the alkyl linker length in Mito-NP.
Induction of superoxide production by mitochondria-targeted pyridinium cations.

[14] = test system: mitochondrial Prx3; experiment: Redox blotting of peroxiredoxin 3; assay type: cell-based, human; conditions: 10 μM, 1 h, LS513 cells
Method: FIG. 6. Effect of Mito-NP-C10 (10 μM, 1 h) on the redox status of cytosolic (Prx1) and mitochondrial (Prx3) peroxiredoxins. **p<0.01
Intracellular localization of redox stress. To understand the fate of superoxide induced by Mito-NP-C10 and determine the localization of the redox cycling process, we performed redox blotting of peroxiredoxin isoforms 1 and 3 (Prx1 and Prx3).

[15] = test system: LS513 colon cancer cells; experiment: Oxygen consumption rate / mitochondrial respiration; assay type: cell-based, human
Method: FIG. 7. Effect of Mito-NP-C10 (0-100 μM) on the rates of oxygen consumption (OCR) by LS513 colon cancer cells, and on the cell response to mitochondrial stressors: oligomycin (ATP synthase inhibitor), dinitrophenol (DNP, mitochondrial uncoupler) and antimycin A (mitochondrial complex III inhibitor).
Induction of bioenergetic stress. To test the effect of Mito-NP-C10 on the bioenergetic function of LS513 cells, we monitored the mitochondrial respiration in response to acute addition of the compound at different doses (FIG. 7).

[16] = test system: LS513 cells; experiment: Cell death, Sytox Green; assay type: cell-based, human; conditions: prolonged (>24 h) incubation

In the case of O=[N+]([O-])C1=CN(CCCCCCCCCC[P+](c2ccccc2)(c2ccccc2)c2ccccc2)C=CC1 [Mito-NPH], the IC50 ([1]; 5 days incubation, read-out: IC50 (antiproliferative, cell count)) is reported as 1.2 ± 0.1 µM, the “cytotoxic potency (Sytox Green) vs Mito-NP” value ([2]; 24 h) is reported as “significantly stronger cytotoxic agent” and the “stimulation of intracellular O2.- production (2-OH-E+) vs Mito-NP” value [3] is reported as 2 fold. For the same compound, the “dynamics of inhibition of mitochondrial respiration vs Mito-NP” value ([4]; 10 μM) was “More efficient inhibition of mitochondrial respiration”, the “tumor growth (size, wet weight)” value [5] was “inhibition of the tumor growth” and the “compound level in tumor tissues” value [6] was “detected both Mito-NP and Mito-NPH”.

In the case of O=[N+]([O-])c1ccc[n+](CCCCCCCCCC[P+](c2ccccc2)(c2ccccc2)c2ccccc2)c1 [Mito-NP], the “cell proliferation (confluence)” value ([7]; 10 μM) is reported as “blocked the proliferation of colon cancer cells”, the IC50 ([1]; read-out: IC50 (cell growth)) is reported as 2.7 ± 0.2 µM and the IC50 [8] is reported as 2.8 ± 0.3 µM. For the same compound, the IC50 [9] was 3.1 ± 0.1 µM, the “cell death (Sytox Green)” value ([2]; 48-h treatment) was “dose-dependently induced death of MiaPaCa2 cells; also recorded: significantly stronger inducer of MiaPaCa2 cell death than Mito-Met” and the “cell death (Sytox Green)” value [10] was “No induction of cell death”. The “O2.- production (2-OH-E+)” value ([3]; 4 h) was “significant increase”, the “other HE oxidation products” value ([3]; 4 h) was “An increased level of other oxidation products” and the “oxidation of mitochondrial Prx3” value [11] was “strong oxidation of mitochondrial Prx3”. For the same compound, the “oxidation of cytosolic Prx1” value [12] was “only modest effect on cytosolic Prx1”, the mitochondrial respiration [4] was “time- and concentration-dependent inhibition of mitochondrial respiration” and the ATP-linked respiration ([4]; 10 μM, 24-h incubation) was “complete inhibition of ATP-linked respiration”. For the same compound, the “rate of mitochondrial ATP production” value ([4]; 24-h incubation) was “decrease in the rate of mitochondrial ATP production”, the “concentration needed to block ATP-linked respiration” value ([4]; 1 h after injection) was 100 µM and the “glycolytic ATP production” value ([4]; concentrations higher than 10 μM, 24-h incubation) was “decreased at higher concentrations”. The “glycolytic ATP production” value ([4]; concentrations up to 10 μM, 24-h incubation) was “remained unchanged”.

In the case of O=[N+]([O-])c1ccc[n+](CCCCCCCCCC[P+](c2ccccc2)(c2ccccc2)c2ccccc2)c1 [Mito-NP-C10], the “superoxide production (2-OH-E+)” value [13] is reported as “most potent inducer of superoxide production”, the “oxidation of mitochondrial Prx3” value [14] is reported as “induces significant oxidation of mitochondrial Prx3” and the “response to mitochondrial stressors (oligomycin, DNP, antimycin A)” value ([15]; 0-100 μM) is reported as “a loss in response to oligomycin”. The “mitochondrial respiration rates (OCR)” value ([15]; 0-100 μM, acute addition) was “time- and concentration-dependent inhibition in mitochondrial respiration rates”, the “antimycin A-independent oxygen consumption” value ([15]; 30 and 100 μM) was “increased the rates of antimycin A-independent oxygen consumption” and the IC50 [7] was 6 µM. The “cell death (Sytox Green)” value [16] was “results in cell death”.

With O=[N+]([O-])c1ccc[n+](CCCCCCCC[P+](c2ccccc2)(c2ccccc2)c2ccccc2)c1 [Mito-NP-C8] the “superoxide production (2-OH-E+)” value [13] was “stimulated superoxide production”, the IC50 [7] was 13 µM and the “cell death (Sytox Green)” value [16] was “results in cell death”.
